Measurements reported in patent US20260115197A1, “TREATMENT COMPOSITION FOR INHIBITING SYSTEMIC SCLEROSIS VIMENTIN MUTANT PROTEIN ACTIVITY BY USING STAT6 INHIBITOR” (THE CATHOLIC UNIVERSITY OF KOREA INDUSTRY-ACADEMIC …, priority 2022, published 2026).

Assays:
[1] = system: cell surface Vimentin (CSV) and fibrosis factors aSMA, Col1, IL-17; experiment: Fibrosis factors and cell surface Vimentin in skin tissue of systemic sclerosis mouse, immunohistochemical staining; format: in vivo, B6 mouse; settings: 10 mg/kg orally daily, vs Vehicle group
Experimental: (§1) To determine whether the STAT6 inhibitor of the present disclosure alleviated systemic sclerosis, a systemic sclerosis animal model was constructed. Specifically, a 2×2 cm area on the nape of the neck of the B6 mouse was shaved using a clipper, and then subcutaneously injected with 100 μL of PBS containing 50 μg of bleomycin (BLM) daily for 2 weeks to induce systemic sclerosis. One week after the start of BLM administration, 200 μL of vehicle solution (10% DMSO, 40% PEG300, 5% tween 80 and 45% Saline) containing the STAT6 inhibitor at a concentration of 10 mg/kg was orally administered daily. Thereafter, the blood from the mouse was collected on week 1 and week 5 after induction of systemic sclerosis, and the activity of M2 macrophages capable of inducing fibrosis from the collected blood was analyzed using flow cytometry. As a control group, a wild-type mouse (WT) and a Vehicle group that was induced with systemic sclerosis but not treated with a drug were used.
In autoimmune diseases, it has been reported that Vimentin played an important role in cell interaction and the function of the immune system, and mutated or natural-type Vimentin was involved in the inflammatory responses and the pathogenesis of various autoimmune diseases (Autoimmun Rev. 2018 September: 17 (9): 926-934. doi: 10.1016/j.autrev.2018.04.004. Epub 2018 Jul. 17.), and thus, even in systemic sclerosis, the effect of the STAT6 inhibitor on the expression pattern of cell surface Vimentin (CSV) was also identified. Specifically, the expression of fibrosis factors aSMA, Col1, and IL-17 and CSV-positive cells in the skin tissue obtained in Example 4-1 was identified by immunohistochemical staining.

[2] = system: pSTAT6 and CD8 positive T cells; experiment: pSTAT6 and CD8 positive T cells in skin and lung tissues of systemic sclerosis mouse, confocal microscopy; format: in vivo, B6 mouse; settings: 10 mg/kg orally daily, vs Vehicle group
[3] = system: Vimentin antigen-specific systemic sclerosis animal model; experiment: Skin fibrosis and CSV expression in Vimentin antigen-specific systemic sclerosis animal model; format: in vivo, SKG mouse; settings: 10 mg/kg subcutaneously three times a week until week 5; vs vim SSc group
Experimental: In systemic sclerosis, Vimentin increased the disease symptom activity of systemic sclerosis, and thus, the effect of the STAT6 inhibitor was evaluated in a Vimentin antigen-specific systemic sclerosis animal model. Specifically, systemic sclerosis was induced by immunizing a 8-week-old SKG mouse with a Vimentin protein as an antigen and then subcutaneously injecting 100 μL of Bleomycin (BLM) six times a week for two weeks. Thereafter, on week 2 of systemic sclerosis induction, the mouse was secondary immunized with the Vimentin protein, and then subcutaneously injected with the STAT6 inhibitor of the present disclosure three times a week at a concentration of 10 mg/kg until week 5 from the starting of the experiment. Thereafter, at the end point of the experiment, the mouse was humanely sacrificed, and skin and lung tissues were obtained, and then the thickness of the skin dermal layer was identified by H&E staining, […] The specific experimental process was illustrated in FIG. 9, and as a control group, a Vimentin antigen-specific systemic sclerosis animal model (vim SSc group) with increased disease symptom activity by a Vimentin antigen was used.

[4] = system: systemic sclerosis animal model; experiment: Skin fibrosis in systemic sclerosis animal model, H&E staining; format: in vivo, B6 mouse; settings: 10 mg/kg orally daily; BLM-induced; vs Vehicle group
Experimental: as §1
To determine whether the STAT6 inhibitor of the present disclosure alleviated systemic sclerosis, inhibition of skin fibrosis was identified. […]

[5] = system: cell surface Vimentin (CSV) and fibrosis factors aSMA, Col1, IL-17; experiment: Fibrosis factors and cell surface Vimentin in lung tissue of systemic sclerosis mouse, immunohistochemical staining; format: in vivo, B6 mouse; settings: 10 mg/kg orally daily, vs Vehicle group
Experimental: as §1
It was identified whether the STAT6 inhibition of the present disclosure inhibited cell surface Vimentin in the tissue. Specifically, the expression of fibrosis factors aSMA, Col1, and IL-17 and CSV-positive cells in the lung tissue obtained in Example 4-2 was identified by immunohistochemical staining.

[6] = system: M2 macrophages; experiment: M2 macrophage activity in blood of bleomycin-induced systemic sclerosis animal model, flow cytometry; format: in vivo, B6 mouse; settings: 10 mg/kg orally daily; BLM-induced; vs Vehicle group
Experimental: as §1

[7] = system: CD103 and CD8 positive cells (CD8 TRM); experiment: IL-17 or IFNγ expression CD103 and CD8 positive cells (CD8 TRM) in skin of Vimentin antigen-specific systemic sclerosis animal model, confocal microscope; format: in vivo, SKG mouse; settings: 10 mg/kg subcutaneously three times a week; vs vim SSc group
Experimental: In systemic sclerosis, Vimentin increased the disease symptom activity of systemic sclerosis, and thus, the effect of the STAT6 inhibitor was evaluated in a Vimentin antigen-specific systemic sclerosis animal model. Specifically, systemic sclerosis was induced by immunizing a 8-week-old SKG mouse with a Vimentin protein as an antigen and then subcutaneously injecting 100 μL of Bleomycin (BLM) six times a week for two weeks. Thereafter, on week 2 of systemic sclerosis induction, the mouse was secondary immunized with the Vimentin protein, and then subcutaneously injected with the STAT6 inhibitor of the present disclosure three times a week at a concentration of 10 mg/kg until week 5 from the starting of the experiment. Thereafter, at the end point of the experiment, the mouse was humanely sacrificed, and skin and lung tissues were obtained, and then the thickness of the skin dermal layer was identified by H&E staining, and the expression of CSV in the lung tissue was identified by immunohistochemical staining. The specific experimental process was illustrated in FIG. 9, and as a control group, a Vimentin antigen-specific systemic sclerosis animal model (vim SSc group) with increased disease symptom activity by a Vimentin antigen was used. […]

[8] = system: human dermal fibroblast line; experiment: Expression of fibrosis genes in TGF-β-treated fibroblasts, real-time PCR; format: cell-based; settings: with 10 ng/ml TGF-β, 24 hours; vs TGF-β alone
Experimental: In order to identify the effect of STAT6 inhibition on systemic sclerosis of the present disclosure, inhibition of fibrosis genes of fibroblasts was identified. Specifically, a human dermal fibroblast line was treated with 10 ng/ml of TGF-β and […] of an STAT6 inhibitor and then cultured for 24 hours. Thereafter, the expression of fibrosis factors, TGF-β, Col1a1 (Collagen, type I, alpha 1), and α-SMA 10 (alpha smooth muscle actin), was identified by real-time PCR.

[9] = system: systemic sclerosis animal model; experiment: Pulmonary fibrosis in systemic sclerosis animal model, H&E staining; format: in vivo, B6 mouse; settings: 10 mg/kg orally daily; BLM-induced; vs Vehicle group
Experimental: as §1
It has been identified whether the STAT6 inhibition of the present disclosure inhibited pulmonary fibrosis in systemic sclerosis. Specifically, a lung tissue was obtained from the mouse sacrificed in the Example 4-1 above, and subjected to H&E staining to determine the histological score for pulmonary fibrosis.

[10] = system: spleen single cells; experiment: Control of fibrosis-related immunocytes in TGF-β-treated spleen single cells, flow cytometry; format: cell-based, B6 mouse; settings: 10 nM, with 10 ng/ml TGF-β, 72 hours; vs TGF-β alone
Experimental: In order to identify an effect of inhibiting signal transducer and activator of transcription 6 (STAT6) on systemic sclerosis of the present disclosure, the control effect of immunocytes related to fibrosis was identified. Specifically, spleen single cells were obtained from a B6 mouse, treated with 10 ng/ml of transforming growth factor-β (TGF-β) and 10 nM of a STAT6 inhibitor (YM-341619, Chemical Formula 1), and then cultured for 72 hours. The expression of profibrotic T cells, M2 macrophages, and Treg related to systemic sclerosis was analyzed by flow cytometry. In addition, the expression ratio of M2 macrophages and M1 macrophages was identified to identify the control of immunocytes. As a control group, an untreated control group (Nil) and a group treated with TGF-β alone were used.

In the case of `NC(=O)c1cnc(Nc2ccc(N3CCOCC3)cc2)nc1NCc1c(F)ccc(F)c1F` [STAT6 inhibitor, YM-341619], the “expression of Col1 in skin tissue” value [1] is reported as “significantly reduced”, the “expression of IL-17 in skin tissue” value [1] is reported as “significantly reduced” and the “expression of aSMA in skin tissue” value [1] is reported as “significantly reduced”. For the same compound, the “number of CSV positive cells in skin tissue” value [1] was “significantly reduced”, the “expression of pSTAT6 and CD8 positive T cells in lung tissue” value ([2]; lung) was “significantly reduced” and the “expression of pSTAT6 and CD8 positive T cells in skin tissue” value ([2]; skin) was “significantly reduced”. The “expression of CSV in the skin tissue” value [3] was “significantly reduced”, the “thickness of the skin dermis layer” value [3] was “significantly reduced” and the “thickness of the skin dermal layer” value [4] was “significantly reduced”. The “expression of Col1 in lung tissue” value [5] was “significantly reduced”, the “expression of IL-17 in lung tissue” value [5] was “significantly reduced” and the “expression of aSMA in lung tissue” value [5] was “significantly reduced”. The “number of CSV positive cells in lung tissue” value [5] was “significantly reduced”, the “activity of M2 macrophages capable of inducing fibrosis in blood” value [6] was “significantly reduced” and the “IFNγ expression CD103 and CD8 positive cells in skin tissue” value [7] was “no change”. The “IL-17 expression CD103 and CD8 positive cells (CD8 TRM) in skin tissue” value [7] was “significantly reduced”, the “expression of fibrosis gene Col1a1” value [8] was “significantly decreased” and the “expression of fibrosis gene TGF-β” value [8] was “significantly decreased”. For the same compound, the “expression of fibrosis gene α-SMA” value [8] was “significantly decreased”, the “histological score for pulmonary fibrosis” value [9] was “significantly reduced” and the M2/M1 expression ratio [10] was “significantly reduced”. The “expression of M2 macrophages” value [10] was “significantly reduced”, the “expression of Treg” value [10] was “significantly increased” and the “expression of pro-fibrosis T cells (IL-4+ T cells and IL-4+ and IL-17+ T cells)” value [10] was “significantly reduced”.
